Measured values taken from US20230046728A1, “TECHNOLOGIES USEFUL FOR ASSESSING PERMEABILITY” (FOG PHARMACEUTICALS, INC., priority 2019, published 2023).

Key:
[1] = system: Expi293 cells transfected with His-Halotag; experiment: Library cell penetration assay, cell crash method (Example 6); type: in vitro ADME, human; conditions: for Peptide Signal in Cells (from cells; agents comprising —Cl): MS signal of unconverted —Cl agent from cells; for Peptide Signal in Cells (from cells; agents comprising —Cl) / Mass Shifted Peptide Signal in Cells: library pool or individual peptide; for Mass Shifted Peptide Signal in Cells: MS signal of —OH agent from cells; for Cell Penetration Score: Mass Shifted Peptide Signal in Cells divided by Mass Shifted Peptide Theoretical Max Signal, averaged across replicates
Description: Animal cells (e.g., Expi293 cells or human HEK 293 cells) were seeded in tissue culture plates and cultured in Opti-MEM media. The cells were set in PETG flasks at a concentration of 6×10^5 cells/mL and a volume of 30 mL. The cell viability was checked to be above 90-93%. The flasks were placed in a shaking incubator at 300 rpm in 8% CO2.
After 24 hours of incubation, for each flask, one 1.5-mL Lo-bind tube and one 2-mL Lo-Bind tube were prepared. In the 1.5-mL tube, 30 μg of polyhistidine-tagged halotag (His-Halotag) plasmid and Opti-MEM media were added to provide a 1-mL mixture. In the 2-mL Lo-Bind tube, 60 μL of ExpiFectamine and 940 μL of Opti-MEM were added. After 5 minutes, the plasmid/Opti-MEM mixture was added to the ExpiFectamine/Opti-MEM mixture. The combined mixture was placed in an incubator at room temperature for 20 minutes, which was subsequently added to the flask.
After 48 hours of transfection, the transfected cells were checked for viability (90% or higher). The transfected cells were transferred to a protein Lo-Bind Eppendorf 96-well deep well plate (1000 μL), where each well contained 1 million cells in 500 μL of Expi293 media.
Solutions of candidate compounds, either individual peptides or peptides from a peptide library (DPLs), were received at a stock concentration of 10 mM and diluted in DMSO and kept in a “Source Plate”. For DPLs, the peptide concentration in the “Source Plate” was 1 mM, whereas for individual peptides, the concentration was either 100 μM (for a final concentration of 100 nM) or 10 μM (for a final concentration of 10 nM). […] of the DPL or individual peptide solution was added in triplicates to the 96-well plate. The cells were kept in a shaking incubator at 300 rpm and 37 ° C., 8% CO2 overnight for about 18-20 hours.
The following day, one of the following two methods was performed: i) capture beads method or ii) cell crash method.
Cell crash method: the 96-well plate was placed in the centrifuge at 300 g for 5 minutes. 720 μL of the supernatant was removed. The cells were resuspended in residual 200 μL of media. The suspensions were transferred to a 96-well v-bottom plate, which was placed in the centrifuge at 300 g for an additional 5 minutes. All remaining media was removed. The cell pellets were washed with 200 μL of PBS, mixed and placed back in the centrifuge at 300 g and 4 ° C. for an additional 5 minutes. The supernatant was removed and 80 μL of PBS was added.
80 μL of eluted proteins/peptides from the capture beads method or the PBD solution from the cell crash method was transferred into a deepwell low binding plate (500 μL). 80 μL of ammonium hydroxide was added. The plate was kept on a shaker at 37 ° C. for 3 hours. The plate was dried in a speedvac overnight.
The following day, the dried cell pellet was resuspended in 70 μL of 47.5% water with 0.1% FA/47.5% ACN with 0.1% FA/10 μM pepmix (10 mM stock)/5% fresh DMSO. The mixture was let sit in the plate for 1 hour to allow the dissolution of the pellet. If the sample appeared cloudy, more resuspension solution was added (50 μL at a time). 50 μL was transferred directly to the mass spec plate and the plate was sealed with the 384-well plate seal.
(§1) Once all samples were added (including cell free), the plate was placed in an autosampler of a mass spectrometer. For the mass spectrometry analysis, methods from example 1 were employed.
Results from certain assessment were presented blow. Cell crash method was utilized. Mass Shifted Peptide Theoretical Max signal is signal of an agent comprising —OH obtained when using the DhaA to convert input agent comprising —Cl into product agent comprising —OH form without involving cells (multiple agents may be converted simultaneously; in some embodiments, can be performed library by library). In some embodiments, each library pool plus positive and negative references was tested in a single well, which in some cases contain about a million or so cells. […]

DhaA enzyme = DhaA enzyme (Rhodococcus rhodochrous, UniProt P0A3G2); experiment: Cell free peptide/DhaA conversion, Mass Shifted Peptide Theoretical Max signal (Example 6); type: biochemical; conditions: DhaA converts —Cl input agent into —OH product agent, MS signal
Chain of DhaA enzyme (P0A3G2 whole entry): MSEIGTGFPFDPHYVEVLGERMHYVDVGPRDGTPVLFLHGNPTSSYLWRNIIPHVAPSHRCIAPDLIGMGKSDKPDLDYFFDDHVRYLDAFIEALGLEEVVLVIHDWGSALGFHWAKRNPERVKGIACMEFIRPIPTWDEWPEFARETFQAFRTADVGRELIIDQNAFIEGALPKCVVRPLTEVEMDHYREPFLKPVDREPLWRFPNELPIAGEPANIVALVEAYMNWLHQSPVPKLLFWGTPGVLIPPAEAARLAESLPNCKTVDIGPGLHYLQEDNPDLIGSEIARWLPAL
Description: For the cell free systems, DPLs were diluted in a 500 μL DPW plate (library dilution plate). Individual peptides were diluted individually in low-bind tubes until making the final working dilution in PBS. At this point, the individual peptides were transferred to the library dilution plate. By having all final dilutions in one plate, a multichannel was used to transfer the diluted peptides to the cell free plates. The same design as “Source Plate” was used for the cell assay. For the peptide only plate, 45 μL of PBS was added to each well and 5 μL of the diluted library/peptide was added in triplicates. For peptide/DhaA plate, 5 μL of 50 μM DhaA enzyme was added, followed by 40 μL of PBS and 5 μL of the diluted library/peptide. Both plates were kept at the bench top thermomixer at 350 rpm and 37 ° C. overnight. The next day, 2 mL of a cell free solution was prepared with 1 mL of DMSO, 20 μL of PepMix and 980 μL of a 1:1 ratio of ACN/0.1% FA and H2O/0.1% FA. 5 μL of the cell free solution was added to a 384 well plate, followed by 45 μL of the cell free sample.
as §1
Results from certain assessment were presented blow. Cell crash method was utilized. Mass Shifted Peptide Theoretical Max signal is signal of an agent comprising —OH obtained when using the DhaA to convert input agent comprising —Cl into product agent comprising —OH form without involving cells (multiple agents may be converted simultaneously; in some embodiments, can be performed library by library). In some embodiments, each library pool plus positive and negative references was tested in a single well, which in some cases contain about a million or so cells. Each library pool is an individually prepared library with no purifications—all members mixed together along with side products, etc. “Cell Penetration Score” is calculated by dividing “Mass Shifted Peptide Signal in Cells” by “Mass Shifted Peptide Theoretical Max Signal” for each pair of replicates, then averaging those values across replicates; additionally or alternatively, COR and/or RPF may also be utilized.

Compound | Peptide Signal in Cells (from cells; agents comprising —Cl) [1] | Mass Shifted Peptide Signal in Cells [1] | Cell Penetration Score [1] | Mass Shifted Peptide Theoretical Max Signal (DhaA enzyme)
CNC(=O)[C@H](C)NC(=O)[C@H](C)NC(=O)[C@H](CO)NC(=O)[C@]1(C)CCCC=CCCCCCC[C@@](C)(NC(=O)[C@H](Cc2ccccc2)NC(=O)[C@@H](NC(=O)[C@H](CC(C)C)NC(=O)CCC(=O)NCCOCCOCCCCCCCl)[C@@H](C)O)C(=O)N[C@@H](CCC(=O)O)C(=O)N[C@@H](Cc2ccc(O)cc2)C(=O)N[C@@H](Cc2c[nH]c3ccccc23)C(=O)N[C@@H](C)C(=O)N[C@@H]([C@@H](C)O)C(=O)N[C@@H](CC2CCC2)C(=O)N1 [PEP000126, HaloTagO2-Leu-Thr-Phe-R8-Glu-Tyr-Trp-Ala-Thr-Cba-S5-Ser-Ala-Ala-NHMe] | 4E+06 | 4E+07 | 561 | 
HaloTagO2-Leu-Thr-Phe-ReN-Ala-Tyr-Trp-Ala-Gln-Cba-Az-Ser-Ala-Ala-NH2 [PEP000127] | 0E+00 | 1E+06 | 17 | 8E+06
HaloTagO2-Leu-Thr-Phe-ReN-Ala-Tyr-Trp-Ala-Gln-Cba-Az-Ser-Ala-Ala-NHMe [PEP000130] | 5E+03 | 2E+06 | 27 | 7E+06
HaloTagO2-Leu-Thr-Phe-ReN-Glu-Tyr-Trp-Ala-Ala-Cba-Az-Ser-Ala-Ala-NH2 [PEP000133] | 0E+00 | 3E+05 | 5 | 5E+06
HaloTagO2-Leu-Thr-Phe-ReN-Glu-Tyr-Trp-Ala-Ala-Cba-Az-Ser-Ala-Ala-NHMe [PEP000135] | 0E+00 | 3E+05 | 7 | 5E+06
HaloTagO2-Leu-Thr-Phe-ReN-Glu-Tyr-Trp-Ala-Gln-Cba-Az-Ser-Ala-Ala-NH2 [PEP000128] | 0E+00 | 1E+05 | 3 | 4E+06
HaloTagO2-Leu-Thr-Phe-ReN-Glu-Tyr-Trp-Ala-Gln-Cba-Az-Ser-Ala-Ala-NHMe [PEP000131] | 0E+00 | 1E+05 | 3 | 3E+06
HaloTagO2-Leu-Thr-Phe-ReN-Glu-Tyr-Trp-Ala-Gln-Cba-Az-Ser-Ala-Ala-NHMe [PEP000136] | 0E+00 | 1E+04 | 0 | 4E+06
HaloTagO2-Leu-Thr-Phe-ReN-Glu-Tyr-Trp-Ala-Thr-Cba-Az-Ser-Ala-Ala-NH2 [PEP000134] | 3E+03 | 1E+05 | 2 | 6E+06
HaloTagO2-Leu-Thr-Phe-ReN-Glu-Tyr-Trp-Ala-Thr-Cba-Az-Ser-Ala-Ala-NHMe [PEP000137] | 0E+00 | 4E+05 | 6 | 6E+06
HaloTagO2-Leu-Thr-Phe-ReN-Thr-Tyr-Trp-Ala-Gln-Cba-Az-Ser-Ala-Ala-NH2 [PEP000129] | 0E+00 | 1E+06 | 19 | 6E+06
HaloTagO2-Leu-Thr-Phe-ReN-Thr-Tyr-Trp-Ala-Gln-Cba-Az-Ser-Ala-Ala-NHMe [PEP000132] | 0E+00 | 1E+06 | 20 | 6E+06
